Where two headings read alike, the source gives them in different places.
Columns and labels:
[1] = tested on: dPANK/fbl RNAi treated Drosophila S2 cells; experiment: dPANK/fbl RNA interference in Drosophila S2 cells, rescue by CoA or 4′-phosphopantetheine; assay type: cell-based; conditions: compound added to the medium
Method: Drosophila S2 Cell Culture, RNA Interference, and CoA and 4′-phosphopantetheine treatment: Drosophila Schneider's S2 cells were maintained at 25° C. in Schneider's Drosophila medium (Invitrogen) supplemented with 10% heat inactivated fetal calf serum (Gibco) and antibiotics (penicillin/streptomycin, Invitrogen) under laboratory conditions. Synthesis of RNAi constructs and RNA interference (dsRNA) treatment was carried out as described previously (Siudeja K et al, EMBO Mol Med 3, 755-766 (2011)). Non-relevant (human gene; hMAZ) dsRNA was used as control. The cells were incubated for 4 days to induce an efficient knock-down. Cells were then subcultured, with or without CoA (Sigma-Aldrich, Cat. No: C4780—which is used for all the experiments wherever stated below) or 4′-phosphopantetheine (PPanSH) at different concentrations and were maintained for additional 3 days until analysis for rescue efficiency of the compounds was performed. The stock solutions of compounds were made in sterile water and stored in −20° C. until use.
Drosophila S2 Cell Immunofluorescence Staining: For immunofluorescence Drosophila S2 cells were seeded on Poly-L-Lysine coated (Sigma-Aldrich) glass microscope slides and allowed to settle for 45 min. Cells were fixed with 3.7% formaldehyde (Sigma Aldrich) for 20 min, washed briefly with PBS+0.1% Triton-X-100 (Sigma Aldrich) and permeabilized with PBS+0.2% Triton-X-100 for 20 min. The slides were incubated in primary antibody (rabbit anti-AcLys, Cell Signaling Cat No: 9441, 1:500) to visualize histone acetylation levels in PBS+0.1% Triton-X-100 overnight and after an additional washing step in PBS+0.1% Triton-X-100 they were incubated in secondary goat anti-rabbit-Alexa488 antibody (Molecular Probes) for two hours at room temperature (RT). F-actin was detected with Rhodamin-Phalloidin (20 U/ml)(Invitrogen) and DNA by staining with DAPI (0.2 ug/ml) (Thermo Scientific). Finally the samples were mounted in 80% glycerol and analyzed using a Leica fluorescence microscope with Leica software. Adobe Photoshop and Illustrator (Adobe Systems Incorporated, San Jose, Calif., USA) were used for image assembly.

[2] = tested on: C. elegans pantothenate kinase (pnk-1) mutants; experiment: C. elegans pnk-1 mutant motility and lifespan with CoA in the food; assay type: in vivo, Caenorhabditis elegans; conditions: CoA added to the food
Method: C. elegans Media and Strains: Standard culturing conditions were used for C. elegans maintenance at 20° C. N2 strain was used as a wild-type control. VC927, the PANK deletion mutant pnk-1 (ok1435)I/hT2[bli-4(e937) let-? (q782)qIs48](I; III), was obtained from the Caenorhabditis Genetics Center. To obtain synchronous cultures, worms were bleached with hypochlorite, and allowed to hatch in M9 buffer (3 g KH2PO4, 6 g Na2HPO4, 5 g NaCl, 1 ml 1 M MgSO4, H2O to 1 liter) overnight and cultured on standard Nematode Growth Medium (NGM) plates seeded with OP50 strain of Escherichia coli.
C. elegans Motility Assay: After synchronization, L1 C. elegans were grown on control NMG plates or NGM plates containing various concentrations of CoA. One-day old adults were placed in a drop of M9 buffer and allowed to recover for 30 sec. During the following 30 sec, the number of body bends was counted. A movement was scored as a bend when both the anterior and posterior ends of the animal turned to the same side. At least 15 worms were scored per condition and each experiment was repeated thrice.

[3] = Conversion of CoA in human serum by HPLC; assay type: in vitro ADME
Description: The conversion of CoA to 4′-phosphopantetheine was further investigated in mouse serum and in human serum.

[4] = tested on: homozygous dPANK/fbl1 and dPANK/fblnull mutants; experiment: Drosophila dPANK/fbl mutants, lifespan and development with CoA or Vitamin B5 in the food; assay type: in vivo, Drosophila melanogaster; conditions: CoA added to the food
Method: Drosophila Maintenance and Crosses: Drosophila melanogaster stocks/crosses were raised on standard cornmeal agar fly food (containing water, agar 17 g/L, sugar 54 g/L, yeast extract 26 g/L and nipagin 1.3 g/L) at 25° C. The stocks were either obtained from the Bloomington Stock Centre (Indiana University, USA), VDRC (Vienna Drosophila RNAi Collection, Vienna, Austria) or from the Exelixis Collection (Harvard Medical School) and rebalanced to generate eGFP-positive balancers. The stocks used were: w1118; dPANK/fbl1 hypomorph5,6; dPANK/fblnull (y[1] w[*]; Mi{y[+mDint2]=MIC}fbl[MI04001]/TM3, Sb[1] Ser[1], Bloomington 36941); dPPCDC mutant (w[1118], PBac{w[+mC]=WH}Ppcdc[f00839]/CyO, Bloomington 18377); UAS-dPPCDCRNAi line (VDRC 104495); dCOASY mutant (PBac{RB}Ppat-Dpck[e00492], Exelixis). The UAS-RNAi constructs were expressed ubiquitously using the Actin-Gal4 drivers (y[1] w[*]; P{w[+mC]=Act5C-GAL4}25FO1/CyO, y[+], Bloomington 4414). […]
Drosophila Life Span: One-day old adults of Drosophila homozygous mutants or RNAi-constructs expressing lines, were collected with appropriate controls and were kept on standard fly food at 25° C. with or without CoA or Vitamin B5 (Sigma) at necessary concentration (50 ul added on top of the fly food and dried). The flies were counted every 12-24 hrs and flipped to new fly food vials with or without CoA or Vitamin B5.

[5] = tested on: homozygous dCOASY mutants; experiment: Drosophila dCOASY mutants, larval development with CoA or Vitamin B5; assay type: in vivo, Drosophila melanogaster; conditions: added to the food
Method: Drosophila Maintenance and Crosses: Drosophila melanogaster stocks/crosses were raised on standard cornmeal agar fly food (containing water, agar 17 g/L, sugar 54 g/L, yeast extract 26 g/L and nipagin 1.3 g/L) at 25° C. The stocks were either obtained from the Bloomington Stock Centre (Indiana University, USA), VDRC (Vienna Drosophila RNAi Collection, Vienna, Austria) or from the Exelixis Collection (Harvard Medical School) and rebalanced to generate eGFP-positive balancers. The stocks used were: w1118; dPANK/fbl1 hypomorph5,6; dPANK/fblnull (y[1] w[*]; Mi{y[+mDint2]=MIC}fbl[MI04001]/TM3, Sb[1] Ser[1], Bloomington 36941); dPPCDC mutant (w[1118], PBac{w[+mC]=WH}Ppcdc[f00839]/CyO, Bloomington 18377); UAS-dPPCDCRNAi line (VDRC 104495); dCOASY mutant (PBac{RB}Ppat-Dpck[e00492], Exelixis). The UAS-RNAi constructs were expressed ubiquitously using the Actin-Gal4 drivers (y[1] w[*]; P{w[+mC]=Act5C-GAL4}25FO1/CyO, y[+], Bloomington 4414). Heterozygous flies/larvae for the mutants and the Actin-Gal4 driver crossed to isogenic w1118 flies (Actin-Gal4/+) were used as controls for the RNAi-constructs expressing flies.
Drosophila Larval Collection and Larval Count Experiment: One week old flies (in the ratio 10 females and 5 males) were kept on 5 ml of standard fly food in a vial at 25° C. with or without various concentrations of CoA or Vitamin B5 (Sigma). […]

Compound: CC(C)(COP(=O)(O)OP(=O)(O)OC[C@H]1O[C@@H](n2cnc3c(N)ncnc32)[C@H](O)[C@@H]1OP(=O)(O)O)[C@@H](O)C(=O)NCCC(=O)NCCS [CoA, Coenzyme A]
- cell count of dPANK/fbl RNAi treated S2 cells [1]: rescued the cell count in a concentration-dependent manner
- histone (protein) acetylation of dPANK/fbl RNAi treated S2 cells ([1]; immunofluorescence): rescued
- lifespan of pnk-1 mutants [2]: improved these phenotypes significantly
- motility of pnk-1 mutants [2]: improved these phenotypes significantly
- conversion of CoA in serum [3]: converted to 4′-phosphopantetheine
- lifespan with CoA ([4]; homozygous dPANK/fbl1 mutants, from 20 days without): 40 days
- development with CoA ([4]; homozygous dPANK/fblnull mutants): extended development from the L2 stage to early pupal development
- rescue of the phenotype [5]: did not result in a significant rescue
- CoA, share of the initial concentration still present (3 h): > 95%
- conversion of CoA in serum (bovine (fetal calf)): converted into 4′-phosphopantetheine
- CoA degraded (bovine (fetal calf), 30 min): 90%
